Laboratory results reported in patent US11026910B2, “α- and γ-truxillic acid derivatives and pharmaceutical compositions thereof” (The Research Foundation for The State University of New York, priority 2012, dated 2021).
pKd, pKi: −log10 of the molar value.

Experiments:
FABP5 [1] = target: T1, FABP5 (Homo sapiens, UniProt Q01469); experiment: High throughput fluorescence displacement assay with NBD-stearate; assay type: binding; conditions: stated in words only
T1 construct: made in house
Protocol: FABP5 (30 μg), NBD-stearate (1 μM), and a competitor test compound were incubated in 30 mM Tris-HCl, 100 mM NaCl buffer (pH 7.6). […] The initial assay was run with buffer (30 mM Tris-HCl buffer), negative controls (buffer and NBD-stearate), positive controls (buffer, NBD-stearate, FABP5), and experimental wells with a variable test compound added (arachidonic acid or one of the 48 test compounds) at 10 μM. […] The Kd of NBD-stearate for FABP5 had been determined previously through incubating FABP5 with increasing concentrations of NBD-stearate.

male C57Bl6 mice [2] = experiment: Formalin test; assay type: in vivo
Protocol: (§1) We used male C57Bl6 mice (22-30 g, Taconic Farms) for all experiments. The animals were group housed at room temperature and kept on a 12:12 hour light:dark cycle with ad libitum access to water and food. The animals were habituated to the experimental room for one week before testing. All experiments were approved by the Stony Brook University Institutional Animal Care and Use Committee. The experimenter was blinded to the treatment conditions of each animal.
Mice were habituated to the observation chamber (Plexiglas box, 25 cm×25 cm×25 cm) for 30 min prior to formalin injection. The mice subsequently received an injection of formalin (2.5% in saline, 20 μl) into the plantar surface of the right hind paw using a 27 gauge needle. The animals were immediately placed back into the observation, chamber and nocifensive behavior (time spent licking or biting the paw) was recorded for 60 min. The formalin test consists of two phases with the first phase (0-5 min) reflecting nociceptor activation and the second phase (15-45 min) reflecting an inflammatory pain response.
(§2) Behavioral data are presented as means±S.E.M. for the vehicle and inhibitor-treated groups, each consisting of at least 6 animals. Statistical significance between vehicle and inhibitor groups was determined using unpaired t-tests or one-way ANOVA followed by Dunnett's post hoc analysis. In all cases, differences of p<0.05 were considered significant.

male C57Bl6 mice [3] = experiment: Carrageenan-induced paw edema and thermal hyperalgesia; assay type: in vivo; conditions: 20 mg/kg, i.p. (FIG. 16A)
Protocol: as §1
Paw edema was induced by injecting 1% λ-carrageenan (20 μl, in sterile saline) into the plantar surface of the left hind paw and a control solution of saline into the right hind paw using a 27 gauge needle. Paw diameters were measured before carrageenan injection and 4 hours after injection using digital electronic calipers (Fisher) and expressed to the nearest ±0.01 mm. […] The cannabinoid receptor antagonists, rimonabant and SR144528 (3 mg/kg, i.p.), in ethanol:emulphor:saline (1:1:18), were injected 15 min before the FABP inhibitor. Edema is reported as the change in paw diameter at 4 hr over the baseline. Changes in paw diameter of saline-injected contralateral paws were negligible. Thermal hyperalgesia measured the latency to withdraw the paw from a focused beam of radiant heat applied to the plantar surface of the hind paw using a Hargreaves plantar apparatus (Ugo Basile) set at an intensity of 3.0. For each mouse, the average latencies consisted of three trials spaced at least 5 minutes apart. The mice were habituated to the test chamber for 30 min. The cutoff time was set at 30 sec.
as §2

[4] = literature; cited from earlier work
FABP4 = FABP4 (Homo sapiens, UniProt P15090); conditions: McDonnell 2006; read-out: Ki against FABP4 (1,8-ANS displacement); cited from earlier work
FABP5 [5] = target: T1, FABP5; conditions: cited from earlier work
FABP7 = FABP7 (Homo sapiens, UniProt O15540); conditions: natural substrate; read-out: Ki against FABP7; cited from earlier work
male C57Bl6 mice [6] = conditions: literature SAR study (Chi 2005); cited from earlier work

T1 sequence (Q01469 whole entry, species assumed): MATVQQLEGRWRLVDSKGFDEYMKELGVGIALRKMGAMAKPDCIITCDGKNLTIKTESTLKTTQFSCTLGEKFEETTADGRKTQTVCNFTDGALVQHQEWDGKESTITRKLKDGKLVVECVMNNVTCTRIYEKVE
FABP7, sequence (O15540 whole entry, species assumed): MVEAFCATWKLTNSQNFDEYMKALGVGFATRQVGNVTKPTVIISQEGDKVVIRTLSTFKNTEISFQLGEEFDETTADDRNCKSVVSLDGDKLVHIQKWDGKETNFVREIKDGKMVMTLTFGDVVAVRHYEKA
FABP4, sequence (P15090 whole entry, species assumed): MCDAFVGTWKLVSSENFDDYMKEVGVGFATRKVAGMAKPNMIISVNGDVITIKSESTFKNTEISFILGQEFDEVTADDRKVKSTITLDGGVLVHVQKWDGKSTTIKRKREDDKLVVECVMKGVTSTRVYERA

O=C(O)[C@H]1[C@H](c2ccccc2)[C@H](C(=O)Nc2cccc3ccccc23)[C@H]1c1ccccc1 (stereo in doubt) [Compound 53, 3-(naphthalen-1-ylcarbamoyl)-2,4-diphenylcyclobutanecarboxylic Acid]
FABP inhibition activity (FABP5 [1]): analogous FABP inhibition activity to Compound 26

O=C(O)[C@H]1[C@H](c2ccccc2)[C@H](C(=O)Oc2ccc3ccccc3c2)[C@H]1c1ccccc1 (stereo in doubt) [Compound 54, 3-((naphthalen-2-yloxy)carbonyl)-2,4-diphenylcyclobutanecarboxylic Acid]
first phase of formalin-induced nociception (male C57Bl6 mice [2]; FIG. 16B): reduce | second phase of formalin-induced nociception (male C57Bl6 mice [2]; FIG. 16B): reduce | carrageenan-induced paw edema, 24 hrs after inhibitor administration (male C57Bl6 mice [3]): reduced | carrageenan-induced thermal hyperalgesia, 24 hrs after inhibitor administration (male C57Bl6 mice [3]): reduced | FABP inhibition activity (FABP5 [1]): analogous FABP inhibition activity to Compound 26

COc1cc([C@H]2[C@H](C(=O)O[C@@H]3C[C@@H]4[C@@H](CN(C)C[C@@H]4C)[C@@H]3C)[C@H](c3ccc(O)c(OC)c3)[C@H]2C(=O)O[C@@H]2C[C@@H]3[C@@H](CN(C)C[C@@H]3C)[C@@H]2C)ccc1O [(−)-incarvillateine]
antinociceptive properties [4]: antinociceptive properties on the same level as morphine

O=C(O)[C@@H](O)c1cccc(OCc2ccccc2Cl)c1OCc1ccccc1Cl [BMS480404]
pKi (FABP4): 8.60

O=C(O)C1C(c2ccccc2)C(C(=O)Oc2cccc3ccccc23)C1c1ccccc1 (stereo not shown) [Compound 49, γ-2,4-diphenyl-cyclobutane-1,3-dicarboxylic Acid mono-(1-napthyl) Ester]
results in formalin induced mice models (male C57Bl6 mice [2]; mouse, in vivo): excellent results

CCCCCCC(CCCCCCCCCCC(=O)O)N(C)c1ccc([N+](=O)[O-])c2nonc12 (stereo not shown) [NBD-stearate, 12-N-methyl-(7-nitrobenz-2-oxa-1,3-diazo) aminostearic acid]
pKd (FABP5 [5]; one site binding analysis, determined previously (Kaczocha 2012), read-out: Kd of NBD-stearate for FABP5): 6.80

CCCCC/C=C\C/C=C\C/C=C\C/C=C\CCCC(=O)O [arachidonic acid]
pKi (FABP5 [5]; published value, read-out: Ki against FABP5, published / previously determined): 6.89

CCCCCCCC/C=C\CCCCCCCC(=O)O [oleic acid]
pKi (FABP7): 6.46

O=C(O)C1C(c2ccccc2)C(C(=O)O)C1c1ccccc1 (stereo not drawn) [α-truxillic acid, α-2,4-diphenyl-cyclobutane-1,3-dicarboxylic Acid]
antinociception in early and late stage pain, formalin induced mouse models (male C57Bl6 mice [6]): best antinociceptive agent in both early and late stage pain
